The target of this experiment is 72 kDa type IV collagenase (Homo sapiens, UniProt P08253). The experiment can be described thus: Inhibition of recombinant MMP2.
72 kDa type IV collagenase, sequence (P08253 whole entry): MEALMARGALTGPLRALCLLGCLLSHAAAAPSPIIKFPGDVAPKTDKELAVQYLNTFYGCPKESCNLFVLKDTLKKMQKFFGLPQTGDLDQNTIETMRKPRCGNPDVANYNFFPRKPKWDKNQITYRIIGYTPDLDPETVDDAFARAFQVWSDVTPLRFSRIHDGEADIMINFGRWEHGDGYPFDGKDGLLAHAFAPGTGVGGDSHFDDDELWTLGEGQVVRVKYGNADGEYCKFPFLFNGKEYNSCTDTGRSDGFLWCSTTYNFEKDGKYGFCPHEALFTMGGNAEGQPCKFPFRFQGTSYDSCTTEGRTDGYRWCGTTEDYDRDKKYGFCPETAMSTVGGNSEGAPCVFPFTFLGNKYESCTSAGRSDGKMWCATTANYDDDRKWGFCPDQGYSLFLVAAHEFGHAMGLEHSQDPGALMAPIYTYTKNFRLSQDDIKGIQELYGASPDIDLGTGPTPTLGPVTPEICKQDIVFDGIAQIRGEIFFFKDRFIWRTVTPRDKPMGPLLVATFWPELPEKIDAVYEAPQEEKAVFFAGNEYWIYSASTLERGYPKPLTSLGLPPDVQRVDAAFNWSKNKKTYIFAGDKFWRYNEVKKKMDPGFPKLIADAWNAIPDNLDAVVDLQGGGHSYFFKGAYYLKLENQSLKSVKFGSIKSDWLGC

For the compound `CCCCCCC(O)CCCCCCCCCCCOS(=O)(=O)O` (stereo unspecified), the IC50 – broadly, the midpoint of a concentration-inhibition curve – was 23.2 µM.

For the origin of these results see ChEMBL document CHEMBL1150172, “Sodium 1-(12-hydroxy)octadecanyl sulfate, an MMP2 inhibitor, isolated from a tunicate of the family Polyclinidae” (J Nat Prod, 2002).
